Patent US20260356819A1, “OXOISOINDOLINYL-SUBSTITUTED […] DERIVATIVE AND USE THEREOF” (GLUETACS THERAPEUTICS (SHANGHAI) CO., LTD., priority 2023, published 2026)

Columns and labels:
Type in all cases: cell-based
Conditions in all cases: compounds at 50 nM and 500 nM
[1] = target: T1, WEE1 (Homo sapiens, UniProt P30291+Q96SW2); assay: Western blot degradation of WEE1 in hPBMCs (24 h)
T1 construct: The supernatant was aspirated as the extracted total cell protein; endogenous in cells; host or cells: human peripheral blood mononuclear cells (hPBMCs)
T1 sequence (P30291 whole entry): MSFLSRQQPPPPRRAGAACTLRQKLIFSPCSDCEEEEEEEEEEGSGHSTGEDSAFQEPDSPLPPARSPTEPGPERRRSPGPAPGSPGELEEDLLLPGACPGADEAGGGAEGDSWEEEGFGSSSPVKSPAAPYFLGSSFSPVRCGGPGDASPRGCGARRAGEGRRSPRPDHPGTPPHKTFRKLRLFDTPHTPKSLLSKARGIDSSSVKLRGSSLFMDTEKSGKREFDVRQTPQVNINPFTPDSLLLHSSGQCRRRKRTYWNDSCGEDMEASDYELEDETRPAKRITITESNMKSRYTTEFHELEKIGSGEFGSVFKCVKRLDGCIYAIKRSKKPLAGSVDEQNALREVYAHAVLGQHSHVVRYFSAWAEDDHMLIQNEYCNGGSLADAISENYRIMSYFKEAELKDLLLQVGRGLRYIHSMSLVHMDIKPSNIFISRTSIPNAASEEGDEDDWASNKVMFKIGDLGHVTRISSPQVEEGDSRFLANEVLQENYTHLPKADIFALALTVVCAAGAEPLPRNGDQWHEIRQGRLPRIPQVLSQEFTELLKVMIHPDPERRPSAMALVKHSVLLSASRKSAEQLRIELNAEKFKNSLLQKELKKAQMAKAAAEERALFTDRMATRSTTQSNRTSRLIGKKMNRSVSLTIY
T1 sequence (Q96SW2 whole entry): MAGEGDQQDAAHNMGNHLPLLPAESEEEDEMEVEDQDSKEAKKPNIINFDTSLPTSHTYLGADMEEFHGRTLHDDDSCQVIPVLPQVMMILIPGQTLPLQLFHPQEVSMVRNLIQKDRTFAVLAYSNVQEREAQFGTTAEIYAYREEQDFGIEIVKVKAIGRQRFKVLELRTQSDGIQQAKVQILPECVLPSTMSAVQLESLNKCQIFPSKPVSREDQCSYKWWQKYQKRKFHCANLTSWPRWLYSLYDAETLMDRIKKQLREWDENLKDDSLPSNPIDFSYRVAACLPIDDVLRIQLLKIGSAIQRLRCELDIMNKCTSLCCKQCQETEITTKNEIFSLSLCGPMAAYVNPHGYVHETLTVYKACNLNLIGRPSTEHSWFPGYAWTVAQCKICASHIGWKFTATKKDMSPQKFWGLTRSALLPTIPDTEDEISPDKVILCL
T1 sequence (Q16531 whole entry partner): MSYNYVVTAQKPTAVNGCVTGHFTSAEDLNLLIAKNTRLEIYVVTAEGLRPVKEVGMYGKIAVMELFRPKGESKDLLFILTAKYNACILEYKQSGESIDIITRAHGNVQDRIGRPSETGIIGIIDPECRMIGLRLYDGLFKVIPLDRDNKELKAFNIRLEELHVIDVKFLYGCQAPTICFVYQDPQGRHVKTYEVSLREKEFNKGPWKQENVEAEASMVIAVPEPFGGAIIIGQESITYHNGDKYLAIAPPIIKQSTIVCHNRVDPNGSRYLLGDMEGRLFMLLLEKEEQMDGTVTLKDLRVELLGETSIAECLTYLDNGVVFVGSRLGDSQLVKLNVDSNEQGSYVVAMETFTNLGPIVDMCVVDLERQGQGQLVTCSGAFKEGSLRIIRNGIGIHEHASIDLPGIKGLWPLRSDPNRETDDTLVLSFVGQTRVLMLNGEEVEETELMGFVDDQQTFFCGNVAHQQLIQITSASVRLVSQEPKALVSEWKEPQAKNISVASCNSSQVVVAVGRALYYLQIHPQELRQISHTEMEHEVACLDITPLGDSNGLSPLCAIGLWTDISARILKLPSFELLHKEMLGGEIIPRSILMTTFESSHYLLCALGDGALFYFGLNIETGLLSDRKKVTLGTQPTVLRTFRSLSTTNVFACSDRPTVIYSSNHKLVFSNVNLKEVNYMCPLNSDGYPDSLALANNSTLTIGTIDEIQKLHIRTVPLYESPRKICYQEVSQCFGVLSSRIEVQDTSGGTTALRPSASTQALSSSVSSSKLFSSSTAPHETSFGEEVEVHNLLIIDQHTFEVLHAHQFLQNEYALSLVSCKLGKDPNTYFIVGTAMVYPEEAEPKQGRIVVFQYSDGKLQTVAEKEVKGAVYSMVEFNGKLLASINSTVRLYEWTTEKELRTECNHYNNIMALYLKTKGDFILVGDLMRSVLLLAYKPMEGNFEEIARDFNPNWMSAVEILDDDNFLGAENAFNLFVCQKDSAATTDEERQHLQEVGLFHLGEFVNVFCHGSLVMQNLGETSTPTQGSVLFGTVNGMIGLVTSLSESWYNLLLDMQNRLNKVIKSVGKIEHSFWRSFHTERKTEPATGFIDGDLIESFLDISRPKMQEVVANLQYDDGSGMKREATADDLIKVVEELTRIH
Method in brief: (§1)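 Immunoblot densitometry quantifies target loss in hPBMCs after a 24 h compound exposure (50 nM, 500 nM). Percent remaining is normalised band intensity; DC50 is the concentration giving half the DMSO-control band grayscale.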

[2] = target: T2, IKZF1 (Homo sapiens, UniProt Q13422+Q96SW2); assay: Western blot degradation of IKZF1 in hPBMCs (24 h)
T2 construct: The supernatant was aspirated as the extracted total cell protein; endogenous in cells; host or cells: human peripheral blood mononuclear cells (hPBMCs)
T2 sequence (Q13422 whole entry): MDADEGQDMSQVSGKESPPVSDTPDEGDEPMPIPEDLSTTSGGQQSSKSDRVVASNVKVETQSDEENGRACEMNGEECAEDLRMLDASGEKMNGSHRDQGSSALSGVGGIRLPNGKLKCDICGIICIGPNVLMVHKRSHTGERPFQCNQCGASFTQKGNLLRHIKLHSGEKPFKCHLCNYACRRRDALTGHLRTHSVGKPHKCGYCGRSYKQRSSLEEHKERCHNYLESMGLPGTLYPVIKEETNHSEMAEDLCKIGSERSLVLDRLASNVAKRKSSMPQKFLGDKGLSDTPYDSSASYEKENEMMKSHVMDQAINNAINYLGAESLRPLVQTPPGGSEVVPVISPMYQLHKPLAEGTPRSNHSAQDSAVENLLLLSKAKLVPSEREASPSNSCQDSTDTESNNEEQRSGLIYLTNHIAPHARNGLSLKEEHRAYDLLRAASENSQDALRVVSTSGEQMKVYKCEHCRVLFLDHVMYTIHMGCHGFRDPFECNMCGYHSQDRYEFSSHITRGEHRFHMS
T2 sequence (Q96SW2 whole entry): as the sequence (Q96SW2 whole entry) above
T2 sequence (Q16531 whole entry partner): as the sequence (Q16531 whole entry partner) above
Method in brief: as §1

[3] = target: T3, IKZF2 (Homo sapiens, UniProt Q96SW2+Q9UKS7); assay: Western blot degradation of IKZF2 in hPBMCs (24 h)
T3 construct: The supernatant was aspirated as the extracted total cell protein; endogenous in cells; host or cells: human peripheral blood mononuclear cells (hPBMCs)
Method in brief: as §1

[4] = target: T4, IKZF3 (Homo sapiens, UniProt Q96SW2+Q9UKT9); assay: Western blot degradation of IKZF3 in hPBMCs (24 h)
T4 construct: The supernatant was aspirated as the extracted total cell protein; endogenous in cells; host or cells: human peripheral blood mononuclear cells (hPBMCs)
T4 sequence (Q9UKT9 whole entry): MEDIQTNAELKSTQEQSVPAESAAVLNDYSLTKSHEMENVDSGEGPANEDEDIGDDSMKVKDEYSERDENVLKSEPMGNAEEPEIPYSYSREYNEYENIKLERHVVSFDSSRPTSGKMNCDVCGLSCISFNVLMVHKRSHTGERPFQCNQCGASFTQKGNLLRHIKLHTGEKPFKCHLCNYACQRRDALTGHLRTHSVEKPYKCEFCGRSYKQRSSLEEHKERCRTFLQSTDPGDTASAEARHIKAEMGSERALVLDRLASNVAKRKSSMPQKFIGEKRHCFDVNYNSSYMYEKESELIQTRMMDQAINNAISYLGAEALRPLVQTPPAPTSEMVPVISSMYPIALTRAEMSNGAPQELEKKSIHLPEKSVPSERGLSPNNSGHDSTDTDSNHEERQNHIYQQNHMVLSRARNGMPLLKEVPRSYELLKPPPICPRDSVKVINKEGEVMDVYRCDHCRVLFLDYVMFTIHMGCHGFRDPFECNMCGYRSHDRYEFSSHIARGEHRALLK
T4 sequence (Q96SW2 whole entry): as the sequence (Q96SW2 whole entry) above
T4 sequence (Q16531 whole entry partner): as the sequence (Q16531 whole entry partner) above
Method in brief: as §1

[5] = target: T5, CK1α (Homo sapiens, UniProt P48729+Q96SW2); assay: Western blot degradation of CK1α in hPBMCs (24 h)
T5 construct: The supernatant was aspirated as the extracted total cell protein; endogenous in cells; host or cells: human peripheral blood mononuclear cells (hPBMCs)
T5 sequence (P48729 whole entry): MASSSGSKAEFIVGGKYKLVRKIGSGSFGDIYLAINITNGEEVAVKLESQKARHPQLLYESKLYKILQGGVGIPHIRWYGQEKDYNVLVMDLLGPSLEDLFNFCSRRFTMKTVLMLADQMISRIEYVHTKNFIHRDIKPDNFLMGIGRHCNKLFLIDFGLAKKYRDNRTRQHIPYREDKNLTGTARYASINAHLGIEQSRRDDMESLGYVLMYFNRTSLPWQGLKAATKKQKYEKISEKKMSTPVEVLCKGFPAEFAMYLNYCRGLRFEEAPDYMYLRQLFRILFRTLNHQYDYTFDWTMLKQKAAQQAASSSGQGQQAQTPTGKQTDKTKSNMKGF
T5 sequence (Q96SW2 whole entry): as the sequence (Q96SW2 whole entry) above
T5 sequence (Q16531 whole entry partner): as the sequence (Q16531 whole entry partner) above
Method in brief: as §1

[6] = target: T6, GSPT1 (Homo sapiens, UniProt P15170+Q96SW2); assay: Western blot degradation of GSPT1 in hPBMCs (24 h)
T6 construct: The supernatant was aspirated as the extracted total cell protein; endogenous in cells; host or cells: human peripheral blood mononuclear cells (hPBMCs)
T6 sequence (P15170 whole entry): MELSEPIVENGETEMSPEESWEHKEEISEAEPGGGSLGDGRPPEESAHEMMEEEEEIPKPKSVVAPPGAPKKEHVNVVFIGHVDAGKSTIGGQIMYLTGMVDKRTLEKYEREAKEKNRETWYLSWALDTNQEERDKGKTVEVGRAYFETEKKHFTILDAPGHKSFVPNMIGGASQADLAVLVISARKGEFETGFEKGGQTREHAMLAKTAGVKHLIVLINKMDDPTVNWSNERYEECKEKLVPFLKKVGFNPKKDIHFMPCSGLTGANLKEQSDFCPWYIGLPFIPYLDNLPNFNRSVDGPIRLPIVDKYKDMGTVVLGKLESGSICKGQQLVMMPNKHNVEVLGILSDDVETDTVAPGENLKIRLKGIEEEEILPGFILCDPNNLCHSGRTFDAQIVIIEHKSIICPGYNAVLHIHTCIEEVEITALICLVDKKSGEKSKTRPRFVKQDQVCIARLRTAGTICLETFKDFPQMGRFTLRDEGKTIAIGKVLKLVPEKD
T6 sequence (Q96SW2 whole entry): as the sequence (Q96SW2 whole entry) above
T6 sequence (Q16531 whole entry partner): as the sequence (Q16531 whole entry partner) above
Method in brief: as §1

## O=C1CCN(N2C(=O)c3ccc(CN4CCC(c5ccon5)CC4)cc3C2=O)C(=O)N1 [GT-07523, 2-(2,4-dioxotetrahydropyrimidin-1(2H)-yl)-5-((4-(isoxazol-3-yl)piperidin-1-yl)methyl)isoindoline-1,3-dione]
[1]
  WEE1 substrate protein remaining %: A (0% ≤ substrate protein remaining % ≤80%)
[2]
  IKZF1 substrate protein remaining %: A (0% ≤ substrate protein remaining % ≤80%)
[3]
  IKZF2 substrate protein remaining %: A (0% ≤ substrate protein remaining % ≤80%)
[4]
  IKZF3 substrate protein remaining %: B (80%< substrate protein remaining % ≤100%)
[5]
  CK1α substrate protein remaining %: A (0% ≤ substrate protein remaining % ≤80%)
[6]
  GSPT1 substrate protein remaining %: A (0% ≤ substrate protein remaining % ≤80%)

## O=C1CCN(N2C(=O)c3ccc(CN4CCN(c5noc6cc(F)ccc56)CC4)cc3C2=O)C(=O)N1 [GT-07524, 2-(2,4-dioxotetrahydropyrimidin-1(2H)-yl)-5-((4-(6-fluorobenzo[d]isoxazol-3-yl)piperazin-1-yl)methyl)isoindoline-1,3-dione]
[1]
  WEE1 substrate protein remaining %: A (0% ≤ substrate protein remaining % ≤80%)
[2]
  IKZF1 substrate protein remaining %: A (0% ≤ substrate protein remaining % ≤80%)
[3]
  IKZF2 substrate protein remaining %: A (0% ≤ substrate protein remaining % ≤80%)
[4]
  IKZF3 substrate protein remaining %: B (80%< substrate protein remaining % ≤100%)
[5]
  CK1α substrate protein remaining %: B (80%< substrate protein remaining % ≤100%)
[6]
  GSPT1 substrate protein remaining %: A (0% ≤ substrate protein remaining % ≤80%)

## O=C1CCN(N2C(=O)c3ccc(CN4CCN(c5noc6ccncc56)CC4)cc3C2=O)C(=O)N1 [GT-07525, 2-(2,4-dioxotetrahydropyrimidin-1(2H)-yl)-5-((4-(isoxazolo[4,5-c]pyridin-3-yl)piperazin-1-yl)methyl)isoindoline-1,3-dione]
[1]
  WEE1 substrate protein remaining %: B (80%< substrate protein remaining % ≤100%)
[2]
  IKZF1 substrate protein remaining %: B (80%< substrate protein remaining % ≤100%)
[3]
  IKZF2 substrate protein remaining %: B (80%< substrate protein remaining % ≤100%)
[4]
  IKZF3 substrate protein remaining %: B (80%< substrate protein remaining % ≤100%)
[5]
  CK1α substrate protein remaining %: A (0% ≤ substrate protein remaining % ≤80%)
[6]
  GSPT1 substrate protein remaining %: A (0% ≤ substrate protein remaining % ≤80%)

## O=C1CCN(N2C(=O)c3ccc(CN4CCN(c5nsc6cc(F)ccc56)CC4)cc3C2=O)C(=O)N1 [GT-07526, 2-(2,4-dioxotetrahydropyrimidin-1(2H)-yl)-5-((4-(6-fluorobenzo[d]isothiazol-3-yl)piperazin-1-yl)methyl)isoindoline-1,3-dione]
[1]
  WEE1 substrate protein remaining %: B (80%< substrate protein remaining % ≤100%)
[2]
  IKZF1 substrate protein remaining %: B (80%< substrate protein remaining % ≤100%)
[3]
  IKZF2 substrate protein remaining %: B (80%< substrate protein remaining % ≤100%)
[4]
  IKZF3 substrate protein remaining %: B (80%< substrate protein remaining % ≤100%)
[5]
  CK1α substrate protein remaining %: A (0% ≤ substrate protein remaining % ≤80%)
[6]
  GSPT1 substrate protein remaining %: A (0% ≤ substrate protein remaining % ≤80%)

## O=C1CCN(N2C(=O)c3ccc(CN4CCN(c5n[nH]c6cc(F)ccc56)CC4)cc3C2=O)C(=O)N1 [GT-07527, 2-(2,4-dioxotetrahydropyrimidin-1(2H)-yl)-5-((4-(6-fluoro-1H-indazol-3-yl)piperazin-1-yl)methyl)isoindoline-1,3-dione]
[1]
  WEE1 substrate protein remaining %: B (80%< substrate protein remaining % ≤100%)
[2]
  IKZF1 substrate protein remaining %: B (80%< substrate protein remaining % ≤100%)
[3]
  IKZF2 substrate protein remaining %: B (80%< substrate protein remaining % ≤100%)
[4]
  IKZF3 substrate protein remaining %: B (80%< substrate protein remaining % ≤100%)
[5]
  CK1α substrate protein remaining %: A (0% ≤ substrate protein remaining % ≤80%)
[6]
  GSPT1 substrate protein remaining %: A (0% ≤ substrate protein remaining % ≤80%)

## O=C1CCN(N2C(=O)c3ccc(CN4CCN(c5c[nH]c6ncccc56)CC4)cc3C2=O)C(=O)N1 [GT-07528, 5-((4-(1H-pyrrolo[2,3-b]pyridin-3-yl)piperazin-1-yl)methyl)-2-(2,4-dioxotetrahydropyrimidin-1(2H)-yl)isoindoline-1,3-dione]
[1]
  WEE1 substrate protein remaining %: B (80%< substrate protein remaining % ≤100%)
[2]
  IKZF1 substrate protein remaining %: B (80%< substrate protein remaining % ≤100%)
[3]
  IKZF2 substrate protein remaining %: B (80%< substrate protein remaining % ≤100%)
[4]
  IKZF3 substrate protein remaining %: B (80%< substrate protein remaining % ≤100%)
[5]
  CK1α substrate protein remaining %: A (0% ≤ substrate protein remaining % ≤80%)
[6]
  GSPT1 substrate protein remaining %: A (0% ≤ substrate protein remaining % ≤80%)

## O=C1CCN(N2C(=O)c3ccc(CN4CCC(n5cnc6cc(F)ccc65)CC4)cc3C2=O)C(=O)N1 [GT-07529, 2-(2,4-dioxotetrahydropyrimidin-1(2H)-yl)-5-((4-(5-fluoro-1H-benzo[d]imidazol-1-yl)piperidin-1-yl)methyl)isoindoline-1,3-dione]
[1]
  WEE1 substrate protein remaining %: B (80%< substrate protein remaining % ≤100%)
[2]
  IKZF1 substrate protein remaining %: B (80%< substrate protein remaining % ≤100%)
[3]
  IKZF2 substrate protein remaining %: B (80%< substrate protein remaining % ≤100%)
[4]
  IKZF3 substrate protein remaining %: B (80%< substrate protein remaining % ≤100%)
[5]
  CK1α substrate protein remaining %: A (0% ≤ substrate protein remaining % ≤80%)
[6]
  GSPT1 substrate protein remaining %: A (0% ≤ substrate protein remaining % ≤80%)

## O=C1CCN(N2C(=O)c3ccc(CN4CCC(c5n[nH]c6cc(F)ccc56)CC4)cc3C2=O)C(=O)N1 [GT-07530, 2-(2,4-dioxotetrahydropyrimidin-1(2H)-yl)-5-((4-(6-fluoro-1H-indazol-3-yl)piperidin-1-yl)methyl)isoindoline-1,3-dione]
[1]
  WEE1 substrate protein remaining %: A (0% ≤ substrate protein remaining % ≤80%)
[2]
  IKZF1 substrate protein remaining %: B (80%< substrate protein remaining % ≤100%)
[3]
  IKZF2 substrate protein remaining %: B (80%< substrate protein remaining % ≤100%)
[4]
  IKZF3 substrate protein remaining %: B (80%< substrate protein remaining % ≤100%)
[5]
  CK1α substrate protein remaining %: A (0% ≤ substrate protein remaining % ≤80%)
[6]
  GSPT1 substrate protein remaining %: A (0% ≤ substrate protein remaining % ≤80%)

## O=C1CCN(N2Cc3cc(CN4CCN(c5n[nH]c6cc(F)ccc56)CC4)ccc3C2=O)C(=O)N1 [GT-07545, 1-(5-((4-(6-fluoro-1H-indazol-3-yl)piperazin-1-yl)methyl)-1-oxoisoindolin-2-yl)dihydropyrimidine-2,4(1H,3H)-dione]
[1]
  WEE1 substrate protein remaining %: A (0% ≤ substrate protein remaining % ≤80%)
[2]
  IKZF1 substrate protein remaining %: A (0% ≤ substrate protein remaining % ≤80%)
[3]
  IKZF2 substrate protein remaining %: B (80%< substrate protein remaining % ≤100%)
[4]
  IKZF3 substrate protein remaining %: B (80%< substrate protein remaining % ≤100%)
[5]
  CK1α substrate protein remaining %: A (0% ≤ substrate protein remaining % ≤80%)
[6]
  GSPT1 substrate protein remaining %: A (0% ≤ substrate protein remaining % ≤80%)

## O=C1CCN(N2Cc3cc(CN4CC=C(c5c[nH]c6cc(F)ccc56)CC4)ccc3C2=O)C(=O)N1 [GT-07574, 1-(5-((4-(6-fluoro-1H-indol-3-yl)-3,6-dihydropyridin-1(2H)-yl)methyl)-1-oxoisoindolin-2-yl)dihydropyrimidine-2,4(1H,3H)-dione]
[1]
  WEE1 substrate protein remaining %: A (0% ≤ substrate protein remaining % ≤80%)
[2]
  IKZF1 substrate protein remaining %: B (80%< substrate protein remaining % ≤100%)
[3]
  IKZF2 substrate protein remaining %: A (0% ≤ substrate protein remaining % ≤80%)
[4]
  IKZF3 substrate protein remaining %: B (80%< substrate protein remaining % ≤100%)
[5]
  CK1α substrate protein remaining %: A (0% ≤ substrate protein remaining % ≤80%)
[6]
  GSPT1 substrate protein remaining %: A (0% ≤ substrate protein remaining % ≤80%)
